pIC50: −log10 of the molar value. Counter-ions that a name gives are not always drawn.
How the values were obtained:
factor Xa = factor Xa (Homo sapiens, UniProt P00742); test: inhibition of the proteolytic activity of factor Xa, chromogenic peptide substrate; assay type: biochemical; conditions: same method, substrate N-methoxycarbonyl-D-norleucyl-glycyl-L-arginine-4-nitroanilide acetate
Method: (§1) To show the inhibition of the catalytic activity of tryptase one may use chromogenic peptide substrates. The inhibition of the amidolytic activity of tryptase by the compounds described above was shown as follows. The measurements were carried out at room temperature in microtiter plates. The compounds were dissolved in dimethylsulfoxide and 5 μl of this solution were added to a 2.8 nM solution of human recombinant tryptase in a Hepes buffer (pH: 7.8 In analogy to example 1 and using 100 mM Hepes, 140 mM NaCl, 0.1% PEG 6000, 0.05% Tween 80 and 200 nM heparin). Finally 750 μM of tosyl-glycyl-prolyl-lysine-4-nitranilide acetate in Hepes buffer were added and the hydrolysis of the substrate was followed with a spektrophometer. The same method but using N-methoxycarbonyl-D-norleucyl-glycyl-L-arginine-4-nitroanilide acetate as substrate was used to determine the inhibition of the proteolytic activity of factor Xa, i.e., another serin protease, by the compounds.

[1] = target: human recombinant tryptase (Homo sapiens, UniProt Q15661); test: inhibition of the amidolytic activity of tryptase, chromogenic peptide substrate; assay type: biochemical; conditions: 2.8 nM human recombinant tryptase, Hepes buffer pH 7.8, 200 nM heparin, substrate tosyl-glycyl-prolyl-lysine-4-nitranilide acetate, room temperature
Sequence of human recombinant tryptase (Q15661 31-275): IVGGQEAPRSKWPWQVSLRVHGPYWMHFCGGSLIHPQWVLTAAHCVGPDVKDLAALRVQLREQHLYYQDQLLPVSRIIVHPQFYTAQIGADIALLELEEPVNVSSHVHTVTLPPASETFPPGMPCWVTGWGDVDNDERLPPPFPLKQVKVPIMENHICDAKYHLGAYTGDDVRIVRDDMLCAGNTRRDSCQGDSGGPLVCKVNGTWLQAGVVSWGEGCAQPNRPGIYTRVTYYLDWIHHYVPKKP
Method: as §1

Sequence of factor Xa (P00742 235-488 limits assumed): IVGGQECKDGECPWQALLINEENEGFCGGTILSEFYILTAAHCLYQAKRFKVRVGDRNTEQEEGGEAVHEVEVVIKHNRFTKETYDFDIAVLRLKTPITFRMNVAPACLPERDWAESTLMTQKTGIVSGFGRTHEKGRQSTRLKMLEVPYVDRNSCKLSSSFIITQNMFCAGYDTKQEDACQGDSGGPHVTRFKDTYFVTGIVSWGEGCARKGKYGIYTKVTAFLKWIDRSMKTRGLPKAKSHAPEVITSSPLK
Sequence of factor Xa (P00742 41-179 partner limits assumed): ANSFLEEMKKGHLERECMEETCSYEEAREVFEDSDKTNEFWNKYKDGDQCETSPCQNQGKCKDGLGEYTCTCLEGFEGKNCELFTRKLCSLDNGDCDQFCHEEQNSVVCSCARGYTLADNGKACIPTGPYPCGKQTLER

Structure (SMILES) | pIC50 (factor Xa) | pIC50 [1]
N=C(N)c1cccc(NCC(=O)NCC(=O)NCCc2c[nH]c3ccccc23)c1 [Example 2, 2-({3-[amino(imino)methyl]phenyl}amino)-N-(2-{[2-(1H-indol-3-yl)ethyl]amino}-2-oxoethyl)acetamide hydrochloride] | 5.17 | > 7.05
CCOC(=O)C(Nc1cccc(C(=N)N)c1)C(=O)NC(C(=O)NCCc1c[nH]c2ccccc12)C(C)C (stereo not drawn) [Example 5, ethyl 2-({3-[amino(imino)methyl]phenyl}amino)-3-{[1-({[2-(1H-indol-3-yl)ethyl]amino}carbonyl)-2-methylpropyl]amino}-3-oxopropanoate hydrochloride] | 5.24 | > 7.05
N=C(N)c1cccc(NCC(=O)NCC(=O)NCCN2CCOCC2)c1 [Example 25, 2-({3-[amino(imino)methyl]phenyl}amino)-N-(2-([2-(4-morpholinyl)ethyl]amino}-2-oxoethyl)acetamide hydrochloride] | 4.64 | > 7.05
N=C(N)c1cccc(NC(CO)C(=O)NCC(=O)NCCc2c[nH]c3ccccc23)c1 (stereo not drawn) [Example 8, 2-({3-[amino(imino)methyl]phenyl}amino)-3-hydroxy-N-(2-{[2-(1H-indol-3-yl)ethyl]amino}-2-oxoethyl)propanamide hydrochloride] | 5.11 | > 7.05
N=C(N)c1ccc(CNC(C(=O)NCC(=O)NCc2cccnc2)c2ccc[nH]2)cc1 (stereo not drawn) [Example 22, 2-[({4-[amino(imino)methyl]phenyl}methyl)amino]-N-{2-oxo-2-[(3-pyridinylmethyl)amino]ethyl)-2-(1H-pyrrol-2-yl)acetamide hydrochloride] | 4.82 | > 7.05
COc1ccc(CNC(=O)C(C)NC(=O)CNCc2ccc(C(=N)N)cc2)cc1OC (stereo not drawn) [Example 6, 2-({[({4-[amino(imino)methyl]phenyl}methyl)amino]acetyl}amino)-N-{[3,4-bis(methyloxy)phenyl]methyl}propanamide hydrochloride] | < 3.96 | > 7.05
N=C(N)c1cccc(NCC(=O)NCC(=O)NCCc2ccc(O)cc2)c1 [Example 9, 2-({3-[amino(imino)methyl]phenyl}amino)-N-(2-{[2-(4-hydroxyphenyl)ethyl]amino}-2-oxoethyl)acetamide hydrochloride] | 5.62 | > 7.05
CC(C)C(NC(=O)C(CO)Nc1cccc(C(=N)N)c1)C(=O)NCc1ccccc1 (stereo not drawn) [Example 17, 2-{[2-({3-[amino(imino)methyl]phenyl}amino)-3-hydroxypropanoyl]amino}-3-methyl-N-(phenylmethyl)butanamide hydrochloride] | 5.12 | > 7.05
COc1ccccc1N1CCN(C(=O)CNC(=O)CNc2cccc(C(=N)N)c2)CC1 [Example 24, 2-({3-[amino(imino)methyl]phenyl}amino)-N-(2-{4-[2-(methyloxy)phenyl]-1-piperazinyl}-2-oxoethyl)acetamide hydrochloride] | 5.80 | > 7.05
CC(NC(=O)CNc1cccc(C(=N)N)c1)C(=O)NC1CCCCC1 (stereo not drawn) [Example 11, 2-{[({3-[amino(imino)methyl]phenyl}amino)acetyl]amino}-N-cyclohexylpropanamide hydrochloride] | 5.35 | > 7.05
CC(C)C(Nc1cccc(C(=N)N)c1)C(=O)NCC(=O)NCCc1c[nH]c2ccccc12 (stereo not drawn) [Example 10, 2-({3-[amino(imino)methyl]phenyl}amino)-N-(2-{[2-(1H-indol-3-yl)ethyl]amino}-2-oxoethyl)-3-methylbutanamide hydrochloride] | 4.26 | > 7.05
CC(Nc1cccc(C(=N)N)c1)C(=O)NCC(=O)NCCc1c[nH]c2ccccc12 (stereo not drawn) [Example 3, 2-({3-[amino(imino)methyl]phenyl}amino)-N-(2-{[2-(1H-indol-3-yl)ethyl]amino}-2-oxoethyl)propanamide hydrochloride] | 4.66 | > 7.05
CC(NCc1ccc(C(=N)N)cc1)C(=O)NCC(=O)NCCc1ccccn1 (stereo not drawn) [Example 13, 2-[({4-[amino (imino)methyl]phenyl}methyl)amino]-N-(2-oxo-2-{[2-(2-pyridinyl)ethyl]amino}ethyl)propanamide hydrochloride] | < 3.96 | > 7.05
COC(=O)c1ccc(C(NCc2ccc(C(=N)N)cc2)C(=O)NC(C(=O)NCCc2c[nH]c3ccccc23)C(C)C)cc1 (stereo not drawn) [Example 7, methyl 4-(1-[({4-[amino(imino)methyl]phenyl}methyl)amino]-2-{[1-({[2-(1H-indol-3-yl)ethyl]amino}carbonyl)-2-methylpropyl]amino}-2-oxoethyl)benzoate hydrochloride] | < 3.96 | > 7.05
N=C(N)c1ccc(CNC(C(=O)NCC(=O)NCCc2ccccn2)c2ccc[nH]2)cc1 (stereo not drawn) [Example 21, 2-[({4-(amino(imino)methyl)phenyl}methyl)amino]-N-(2-oxo-2-{[2-(2-pyridinyl)ethyl]amino}ethyl)-2-(1H-pyrrol-2-yl)acetamide hydrochloride] | 5.11 | > 7.05
COc1ccc(CNC(=O)CNC(=O)CNc2cccc(C(=N)N)c2)cc1OC [Example 16, 2-({3-[amino (imino)methyl]phenyl}amino)-N-[2-({[3,4-bis(methyloxy)phenyl]methyl]amino}-2-oxoethyl)acetamide hydrochloride] | 5.04 | > 7.05

Continued, values first:

pIC50 (factor Xa) | pIC50 [1] | Structure (SMILES)
5.40 | > 7.05 | N=C(N)c1cccc(NC(CO)C(=O)NCC(=O)N2CCc3ccccc3C2)c1 (stereo not drawn) [Example 15, 2-({3-[amino (imino)methyl]phenyl}amino)-N-[2-(3,4-dihydro-2 (1H)-isoquinolinyl)-2-oxoethyl]-3-hydroxypropanamide hydrochloride]
5.07 | > 7.05 | CC(C)C(NC(=O)C(CO)Nc1cccc(C(=N)N)c1)C(=O)NCc1ccc2c(c1)OCO2 (stereo not drawn) [Example 18, 2-{[2-({3-[amino(imino)methyl]phenyl}amino)-3-hydroxypropanoyl]amino}-N-(1,3-benzodioxol-5-ylmethyl)-3-methylbutanamide hydrochloride]
4.84 | > 7.05 | CC(C)C(NC(=O)CNc1cccc(C(=N)N)c1)C(=O)NCCc1c[nH]c2ccccc12 (stereo not drawn) [Example 12, 2-{[({3-[amino(imino)methyl]phenyl}amino)acetyl]amino}-N-[2-(1H-indol-3-yl)ethyl]-3-methylbutanamide hydrochloride]
< 3.96 | > 7.05 | N=C(N)c1ccc(CNCC(=O)NCC(=O)N2CCN(Cc3ccc4c(c3)OCO4)CC2)cc1 [Example 23, 2-[({4-(amino(imino)methyl)phenyl)methyl)amino]-N-(2-[4-(1,3-benzodioxol-5-ylmethyl)-1-piperazinyl]-2-oxoethyl}acetamide hydrochloride]
4.58 | > 7.05 | N=C(N)c1cccc(NC(C(=O)NCC(=O)NCCc2c[nH]c3ccccc23)c2cc[nH]n2)c1 (stereo not drawn) [Example 4, 2-({3-[amino(imino)methyl]phenyl}amino)-N-(2-{[2-(1H-indol-3-yl)ethyl]amino}-2-oxoethyl)-2-(1H-pyrazol-3-yl)acetamide hydrochloride]
5.07 | > 7.05 | CC(C)C(NC(=O)C(CO)Nc1cccc(C(=N)N)c1)C(=O)NCCC(c1ccccc1)c1ccccc1 (stereo not drawn) [Example 19, 2-{[2-({3-[amino(imino)methyl]phenyl}amino)-3-hydroxypropanoyl]amino}-N-(3,3-diphenylpropyl)-3-methylbutanamide hydrochloride]
5.15 | > 7.05 | N=C(N)c1cccc(NCC(=O)NCC(=O)NCc2ccccc2)c1 [Example 14, 2-({3-[amino (imino)methyl]phenyl}amino)-N-{2-oxo-2-[(phenylmethyl)amino]ethyl}acetamide hydrochloride]
< 3.96 | > 7.05 | N=C(N)c1ccc(CNC(CO)C(=O)NCC(=O)NCCc2ccccn2)cc1 (stereo not drawn) [Example 20, 2-[({4-[amino(imino)methyl]phenyl}methyl)amino]-3-hydroxy-N-(2-oxo-2-{[2-(2-pyridinyl)ethyl]amino}ethyl)propanamide hydrochloride]
